Laboratory results taken from patent US20040087633A1, “Methylidene oxazolidinone compound and preparation method thereof” (Korea Institute of Science and Technology, priority 2002, published 2004).
Converted amounts (≈) assume the structure as drawn.

Tests used:
Test in all cases: Anti-microbial activity test in vitro (agar dilution MIC)
S. epidermidis C2230 = assay type: cell-based; details: S. epidermidis C2230; Agar Dilution method, Mueller Hinton Agar, 18 hours at 37° C.
Summary of the method: (§1)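 Visual endpoint: minimum inhibitory concentration (μg/ml) by agar dilution, Mueller Hinton medium, twofold steps, 18 h at 37 °C.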

S. pyogenes C6003 = assay type: cell-based; details: S. pyogenes C6003; Agar Dilution method, Mueller Hinton Agar, 18 hours at 37° C.
Summary of the method: as §1

S. epidermidis ATCC12228 = assay type: cell-based; details: S. epidermidis ATCC12228; Agar Dilution method, Mueller Hinton Agar, 18 hours at 37° C.
Summary of the method: as §1

S. pyogenes C6012 = assay type: cell-based; details: S. pyogenes C6012; Agar Dilution method, Mueller Hinton Agar, 18 hours at 37° C.
Summary of the method: as §1

S. aureus ATCC 29213 = assay type: cell-based; details: Agar Dilution method, Mueller Hinton Agar, 18 hours at 37° C.
Summary of the method: as §1

S. epidermidis C2235 = assay type: cell-based; details: S. epidermidis C2235; Agar Dilution method, Mueller Hinton Agar, 18 hours at 37° C.
Summary of the method: as §1

E. faecalis C6288 = assay type: cell-based; details: E. faecalis C6288; Agar Dilution method, Mueller Hinton Agar, 18 hours at 37° C.
Summary of the method: as §1

E. faecalis ATCC29212 = assay type: cell-based; details: E. faecalis ATCC29212; Agar Dilution method, Mueller Hinton Agar, 18 hours at 37° C.
Summary of the method: as §1

E. faecium C2252 = assay type: cell-based; details: E. faecium C2252; Agar Dilution method, Mueller Hinton Agar, 18 hours at 37° C.
Summary of the method: as §1

E. faecalis C6291 = assay type: cell-based; details: E. faecalis C6291; Agar Dilution method, Mueller Hinton Agar, 18 hours at 37° C.
Summary of the method: as §1

S. pyogenes ATCC8668 = assay type: cell-based; details: S. pyogenes ATCC8668; Agar Dilution method, Mueller Hinton Agar, 18 hours at 37° C.
Summary of the method: as §1

E. faecium C6301 = assay type: cell-based; details: E. faecium C6301; Agar Dilution method, Mueller Hinton Agar, 18 hours at 37° C.
Summary of the method: as §1

VRE C6487 = assay type: cell-based, Enterococcus faecium; details: VRE C6487; Agar Dilution method, Mueller Hinton Agar, 18 hours at 37° C.
Summary of the method: as §1

VRE C6488 = assay type: cell-based, Enterococcus faecium; details: VRE C6488; Agar Dilution method, Mueller Hinton Agar, 18 hours at 37° C.
Summary of the method: as §1

CRSA C1062 = assay type: cell-based, Staphylococcus aureus; details: CRSA C1062; Agar Dilution method, Mueller Hinton Agar, 18 hours at 37° C.
Summary of the method: as §1

CRSA C6043 = assay type: cell-based, Staphylococcus aureus; details: CRSA C6043; Agar Dilution method, Mueller Hinton Agar, 18 hours at 37° C.
Summary of the method: as §1

MRSA C5100 = assay type: cell-based, Staphylococcus aureus; details: MRSA C5100; Agar Dilution method, Mueller Hinton Agar, 18 hours at 37° C.
Summary of the method: as §1

MRSA C2207 = assay type: cell-based, Staphylococcus aureus; details: MRSA C2207; Agar Dilution method, Mueller Hinton Agar, 18 hours at 37° C.
Summary of the method: as §1

MSSA C7142 = assay type: cell-based, Staphylococcus aureus; details: MSSA C7142; Agar Dilution method, Mueller Hinton Agar, 18 hours at 37° C.
Summary of the method: as §1

MSSA C2214 = assay type: cell-based, Staphylococcus aureus; details: MSSA C2214; Agar Dilution method, Mueller Hinton Agar, 18 hours at 37° C.
Summary of the method: as §1

MRSA C6068 = assay type: cell-based, Staphylococcus aureus; details: MRSA C6068; Agar Dilution method, Mueller Hinton Agar, 18 hours at 37° C.
Summary of the method: as §1

Molecule: CC(=O)NC[C@H]1CN(c2ccc(N3CCC(=CC(C)OC(=O)C(Cl)Cl)CC3)c(F)c2)C(=O)O1 (stereo partly drawn) [Compound 25, N-[[(5S)-3-[3-fluoro-4-(4-(2-(dichloroacetoxy)propylidene)-piperidinyl)-phenyl]-2-oxo-5-oxazolidinyl]methyl]acetamide]
- Minimum inhibition concentration (MIC) (S. epidermidis C2230): 8 µg/mL (≈ 15.9 µM)
- Minimum inhibition concentration (MIC) (S. pyogenes C6003): 8 µg/mL (≈ 15.9 µM)
- Minimum inhibition concentration (MIC) (S. epidermidis ATCC12228): 2 µg/mL (≈ 3.98 µM)
- Minimum inhibition concentration (MIC) (S. pyogenes C6012): 2 µg/mL (≈ 3.98 µM)
- Minimum inhibition concentration (MIC) (S. aureus ATCC 29213): 16 µg/mL (≈ 31.8 µM)
- Minimum inhibition concentration (MIC) (S. epidermidis C2235): 8 µg/mL (≈ 15.9 µM)
- Minimum inhibition concentration (MIC) (E. faecalis C6288): 8 µg/mL (≈ 15.9 µM)
- Minimum inhibition concentration (MIC) (E. faecalis ATCC29212): 8 µg/mL (≈ 15.9 µM)
- Minimum inhibition concentration (MIC) (E. faecium C2252): 8 µg/mL (≈ 15.9 µM)
- Minimum inhibition concentration (MIC) (E. faecalis C6291): 8 µg/mL (≈ 15.9 µM)
- Minimum inhibition concentration (MIC) (S. pyogenes ATCC8668): 2 µg/mL (≈ 3.98 µM)
- Minimum inhibition concentration (MIC) (E. faecium C6301): 8 µg/mL (≈ 15.9 µM)
- Minimum inhibition concentration (MIC) (VRE C6487): 4 µg/mL (≈ 7.96 µM)
- Minimum inhibition concentration (MIC) (VRE C6488): 4 µg/mL (≈ 7.96 µM)
- Minimum inhibition concentration (MIC) (CRSA C1062): 16 µg/mL (≈ 31.8 µM)
- Minimum inhibition concentration (MIC) (CRSA C6043): 16 µg/mL (≈ 31.8 µM)
- Minimum inhibition concentration (MIC) (MRSA C5100): 8 µg/mL (≈ 15.9 µM)
- Minimum inhibition concentration (MIC) (MRSA C2207): 16 µg/mL (≈ 31.8 µM)
- Minimum inhibition concentration (MIC) (MSSA C7142): 16 µg/mL (≈ 31.8 µM)
- Minimum inhibition concentration (MIC) (MSSA C2214): 16 µg/mL (≈ 31.8 µM)
- Minimum inhibition concentration (MIC) (MRSA C6068): 8 µg/mL (≈ 15.9 µM)

Molecule: CC(=S)NC[C@H]1CN(c2ccc(N3CCC(=CC#N)CC3)c(F)c2)C(=O)O1 [Compound 26, N-[[(5S)-3-[3-fluoro-4-(4-(cyanomethylidene)piperidinyl)-phenyl]-2-oxo-5-oxazolidinyl]methyl]thioacetamide]
- Minimum inhibition concentration (MIC) (S. epidermidis C2230): 1 µg/mL (≈ 2.57 µM)
- Minimum inhibition concentration (MIC) (S. pyogenes C6003): 0.25 µg/mL (≈ 0.644 µM)
- Minimum inhibition concentration (MIC) (S. epidermidis ATCC12228): 0.5 µg/mL (≈ 1.29 µM)
- Minimum inhibition concentration (MIC) (S. pyogenes C6012): 0.25 µg/mL (≈ 0.644 µM)
- Minimum inhibition concentration (MIC) (S. aureus ATCC 29213): 2 µg/mL (≈ 5.15 µM)
- Minimum inhibition concentration (MIC) (S. epidermidis C2235): 0.5 µg/mL (≈ 1.29 µM)
- Minimum inhibition concentration (MIC) (E. faecalis C6288): 1 µg/mL (≈ 2.57 µM)
- Minimum inhibition concentration (MIC) (E. faecalis ATCC29212): 2 µg/mL (≈ 5.15 µM)
- Minimum inhibition concentration (MIC) (E. faecium C2252): 1 µg/mL (≈ 2.57 µM)
- Minimum inhibition concentration (MIC) (E. faecalis C6291): 1 µg/mL (≈ 2.57 µM)
- Minimum inhibition concentration (MIC) (S. pyogenes ATCC8668): 0.5 µg/mL (≈ 1.29 µM)
- Minimum inhibition concentration (MIC) (E. faecium C6301): 1 µg/mL (≈ 2.57 µM)
- Minimum inhibition concentration (MIC) (VRE C6487): 0.5 µg/mL (≈ 1.29 µM)
- Minimum inhibition concentration (MIC) (VRE C6488): 0.5 µg/mL (≈ 1.29 µM)
- Minimum inhibition concentration (MIC) (CRSA C1062): 2 µg/mL (≈ 5.15 µM)
- Minimum inhibition concentration (MIC) (CRSA C6043): 2 µg/mL (≈ 5.15 µM)
- Minimum inhibition concentration (MIC) (MRSA C5100): 1 µg/mL (≈ 2.57 µM)
- Minimum inhibition concentration (MIC) (MRSA C2207): 2 µg/mL (≈ 5.15 µM)
- Minimum inhibition concentration (MIC) (MSSA C7142): 2 µg/mL (≈ 5.15 µM)
- Minimum inhibition concentration (MIC) (MSSA C2214): 2 µg/mL (≈ 5.15 µM)
- Minimum inhibition concentration (MIC) (MRSA C6068): 2 µg/mL (≈ 5.15 µM)

Molecule: N-[[(5S)-3-[3-fluoro-4-(4-dicyanomethylidenepiperidinyl) phenyl]-2-oxo-5-oxazolidinyl]methyl]acetamide [Compound 6]
- Minimum inhibition concentration (MIC) (S. epidermidis C2230): 2 µg/mL
- Minimum inhibition concentration (MIC) (S. pyogenes C6003): 4 µg/mL
- Minimum inhibition concentration (MIC) (S. epidermidis ATCC12228): 1 µg/mL
- Minimum inhibition concentration (MIC) (S. pyogenes C6012): 1 µg/mL
- Minimum inhibition concentration (MIC) (S. aureus ATCC 29213): 2 µg/mL
- Minimum inhibition concentration (MIC) (S. epidermidis C2235): 2 µg/mL
- Minimum inhibition concentration (MIC) (E. faecalis C6288): 4 µg/mL
- Minimum inhibition concentration (MIC) (E. faecalis ATCC29212): 4 µg/mL
- Minimum inhibition concentration (MIC) (E. faecium C2252): 4 µg/mL
- Minimum inhibition concentration (MIC) (E. faecalis C6291): 4 µg/mL
- Minimum inhibition concentration (MIC) (S. pyogenes ATCC8668): 1 µg/mL
- Minimum inhibition concentration (MIC) (E. faecium C6301): 2 µg/mL
- Minimum inhibition concentration (MIC) (VRE C6487): 4 µg/mL
- Minimum inhibition concentration (MIC) (VRE C6488): 2 µg/mL
- Minimum inhibition concentration (MIC) (CRSA C1062): 4 µg/mL
- Minimum inhibition concentration (MIC) (CRSA C6043): 4 µg/mL
- Minimum inhibition concentration (MIC) (MRSA C5100): 4 µg/mL
- Minimum inhibition concentration (MIC) (MRSA C2207): 4 µg/mL
- Minimum inhibition concentration (MIC) (MSSA C7142): 4 µg/mL
- Minimum inhibition concentration (MIC) (MSSA C2214): 4 µg/mL
- Minimum inhibition concentration (MIC) (MRSA C6068): 2 µg/mL
